# Source: patent US20250186435A1, “PHARMACEUTICAL FORMULATIONS AND THEIR PREPARATIONS FOR TREATMENT OF CANCER” (priority 2020, published 2025)
# Key:
# [1] = Moisture and thermal sensitivity of CLX-155; type: physicochemical
# Text: Dry granulation is also referred as pre-compression or double compression and is an agglomeration process designed to improve the flow and compression characteristics of powders that would otherwise have poor flow &/or compressibility. The process involves compaction of powder particles into larger pieces or compacts which are subsequently broken down into granules that can be further processed into dosage forms. Dry granulation is suitable for the compound which is sensitive to moisture and temperature.
# [2] = Solubility of API CLX-155 in organic solvents; type: physicochemical
smiles,measurement,setting,value
"CCCCCCCC(=O)Nc1nc(=O)n([C@@H]2O[C@H](C)[C@@H](OC(C)=O)[C@H]2OC(C)=O)cc1F [CLX-155, (2R, 3R, 4R, 5R)-2-(5-Fluoro-4-octanamido 2-oxopyrimidine-1(2H)-yl)-5-methyl-tetrahydrofuran-3,4-diyl-diacetate]",Stability towards moisture,[1],moisture sensitive
same,Thermal stability,[1],thermolabile
same,Solubility,[2]; in Acetonitrile,Slightly Soluble
same,Solubility,[2]; in Methanol,Freely soluble
